From patent US9970929B2, “Voriconazole immunoassays” (ARK Diagnostics, Inc., priority 2013, dated 2018)

What was measured:
antibody Ab15461(P3) = assay: homogeneous enzyme immunoassay for voriconazole (conjugate VOR-8 G6PDH, HITACHI 917), calibration and crossreactivity; assay type: binding, rabbit; conditions: for cross reaction with antibody Ab15461(P3), in words: summary of Tables 2 and 3
From the text: Antibodies obtained using any of the disclosed techniques are screened or purified not only for their ability to react with voriconazole, but for a low cross-reactivity with potential interfering substances. “Cross-reactivity” may be determined in a quantitative immunoassay by establishing a standard curve using known dilutions of the target analyte, voriconazole. The standard curve is then used to calculate the apparent concentration of the interfering substance present in various known amounts in samples assayed under similar condition. The cross-reactivity can be calculated as the apparent concentration divided by the actual concentration multiplied by 100. A certain immunoassay for determining cross-reactivity is a homogeneous enzyme immunoassay using a wild type G6PDH as described in U.S. Pat. No. 3,817,837 or mutant G6PDH engineered to contain a cysteine per subunit as described in U.S. Pat. Nos. 6,033,890, 6,090,567 and 6,455,288. Furthermore, the cross-reactivity can be determined in the same type of immunoassay in which the antibody will ultimately be used.
Rabbit polyclonal antibody Ab15461(P3) was used to measure a substantial change in enzyme activity, generate a calibration curve, and evaluate assay precision, accuracy and specificity. The antibody was added into the antibody diluent to prepare the antibody reagent. The antibody reagent consisted of antibody as prepared above, buffer, stabilizers, preservatives, and the substrates for the enzyme conjugate nicotinamide adenine dinucleotide (NAD^+) and glucose-6-phosphate. Enzyme conjugate including compound VOR-8 G6PDH was added into the conjugate diluent to prepare the enzyme conjugate reagent. The enzyme conjugate reagent included the conjugate, buffer, stabilizers and preservatives. Enzyme conjugate VOR-8 G6PDH was used with rabbit polyclonal antibody Ab15461(P3) in examples below. This technique is generally applicable to produce polyclonal antibodies to voriconazole derivatives and assess their utility.
The voriconazole antibodies and enzyme conjugates may be used in a homogeneous assay format to detect voriconazole samples. An instrument useful to set up the assay is Hitachi 917 Analyzer (Roche). Voriconazole containing sample is incubated with antibody reagent followed by the addition of the enzyme conjugate reagent. The enzyme conjugate activity decreases upon binding to the antibody. The enzyme conjugate, which is not bound to the antibody, catalyzes the oxidation of glucose 6-phosphate (G6P). The oxidation of G6P is coupled with the reduction of NAD^+ to NADH, which can be measured at 340 nm. The change in the absorbance at 340 nm can be measured spectrophotometrically. The voriconazole concentration in a sample can be measured in terms of G6PDH activity. The increase in the rate at 340 nm is due to the formation of NADH and is proportional to the enzyme conjugate activity. An assay curve is generated using voriconazole added into serum negative for voriconazole. The assay rate increases with increasing the concentration of free drug in the sample.
Voriconazole was dissolved in methanol to give a stock solution of 1000 μg/mL. Pooled human serum was aliquoted in 10 mL portions. Voriconazole stock solution was added to the aliquots of human serum in preparing a series of known concentrations of voriconazole calibrators ranging from 0 to 16 μg/mL. The assay was performed using Enzyme Conjugate Reagent NB051:79 containing conjugate VOR-8 G6PDH and Antibody Reagent NB051:79 containing antibody Ab15461(P3). Calibration curves were generated on the HITACHI 917 automated clinical chemistry analyzer, as described in Example 10 by measuring each level in duplicate.
The major metabolic pathway of voriconazole is an enzymatic oxidation of voriconazole. […] The voriconazole metabolite, N-oxide voriconazole was tested in the immunoassay for potential cross reactivity. […]

antifungal activity = conditions: in vitro, versus voriconazole; cited from earlier work
[1] = antifungal triazole 20 μg/mL added to voriconazole 10 μg/mL in human serum

SMILES: OC(Cn1cncn1)(Cn1cncn1)c1ccc(F)cc1F [Fluconazole]
- Cross-reactivity (%) (antibody Ab15461(P3); [1]): 2.7%
- cross reaction with antibody Ab15461(P3), in words (antibody Ab15461(P3)): did not significantly crossreact

SMILES: CCC(C)n1ncn(-c2ccc(N3CCN(c4ccc(OCC5COC(Cn6cncn6)(c6ccc(Cl)cc6Cl)O5)cc4)CC3)cc2)c1=O (stereo not drawn) [Itrconazole, Itraconazole]
- Cross-reactivity (%) (antibody Ab15461(P3); [1]): 1.2%
- cross reaction with antibody Ab15461(P3), in words (antibody Ab15461(P3)): did not significantly crossreact

SMILES: CC[C@@H]([C@H](C)O)n1ncn(-c2ccc(N3CCN(c4ccc(OC[C@@H]5CO[C@@](Cn6cncn6)(c6ccc(F)cc6F)C5)cc4)CC3)cc2)c1=O [Posaconazole]
- Cross-reactivity (%) (antibody Ab15461(P3); [1]): −2.5%
- cross reaction with antibody Ab15461(P3), in words (antibody Ab15461(P3)): did not significantly crossreact

SMILES: C[C@@H](c1nc[n+]([O-])cc1F)[C@](O)(Cn1cncn1)c1ccc(F)cc1F [Vor-N-Oxide, 4-((2S,3R)-3-(2,4-difluorophenyl)-3-hydroxy-4-(1H-1,2,4-triazol-1-yl)butan-2-yl)-5-fluoropyrimidine 1-oxide]
- antifungal potency, fold less potent than the parent drug (antifungal activity): 100 fold
- Cross-reactivity (%) (antibody Ab15461(P3); Vor-N-Oxide 5 μg/mL added to voriconazole 10 μg/mL in human serum, 100 × (mean Test − mean Control) ÷ conc. tested): 6.7%
- Cross-reactivity (%) (antibody Ab15461(P3); Vor-N-Oxide 15 μg/mL added to voriconazole 10 μg/mL in human serum): 6.7%
- cross reaction with antibody Ab15461(P3), in words (antibody Ab15461(P3)): does not cross react significantly

SMILES: C[C@@H](c1ncncc1F)[C@](O)(Cn1cncn1)c1ccc(F)cc1F [Voriconazole, (2R,3S)-2-(2,4-difluorophenyl)-3-(5-fluoro-4-pyrimidinyl)-1-(1H-1,2,4-triazol-1-yl)-2-butanol]
- Reaction Rate (mA/min) Average of Duplicates (antibody Ab15461(P3); voriconazole 1.0 μg/mL calibrator in pooled human serum): 327.2 mA/min
- Reaction Rate (mA/min) Average of Duplicates (antibody Ab15461(P3); voriconazole 2.0 μg/mL calibrator in pooled human serum): 337.4 mA/min
- Reaction Rate (mA/min) Average of Duplicates (antibody Ab15461(P3); voriconazole 4.0 μg/mL calibrator in pooled human serum): 349.6 mA/min
- Reaction Rate (mA/min) Average of Duplicates (antibody Ab15461(P3); voriconazole 8.0 μg/mL calibrator in pooled human serum): 362.4 mA/min
- Reaction Rate (mA/min) Average of Duplicates (antibody Ab15461(P3); voriconazole 16.0 μg/mL calibrator in pooled human serum): 380.4 mA/min
